Results reported in patent US20240277682A1, “PHARMACEUTICAL HYDRONIDONE FORMULATIONS FOR DISEASES” (Gyre Therapeutics, Inc., priority 2021, published 2024).

How the values were obtained:
[1] = Double-blind placebo-controlled tolerability study of single and multiple ascending doses in healthy subjects (Example 6); type: in vivo; settings: for ALT / AST: one subject
From the text: The main objective of this study was to evaluate the tolerability of single and multiple ascending doses of Hydronidone in healthy subjects to support further Phase 1 studies as well to provide supportive information for dosage regimen in Phase II clinical trials.
This was a randomized, double-blind, placebo-controlled, in-patient study of single and multiple escalating doses of Hydronidone in healthy Chinese male and female subjects, 18-45 years of age, satisfying all inclusion and exclusion criteria. Hydronidone 100 mg and 200 mg capsule dosage strengths were used in the study. In every cohort, the subjects were randomly assigned to Hydronidone or placebo at a ratio of 3:1.
The single-dose component of the trial included 30 subjects that received 100 mg, 200 mg, 400 mg, 600 mg and 800 mg of Hydronidone, respectively (6 subjects/cohort). The post-dose observations were performed 24 hrs following the dosing. All subjects have completed the trial. […] Mild transient dizziness following administration of the test article was reported in one subject in each of the 800 mg Hydronidone and placebo cohorts. The dizziness resolved on its own, without sequelae. The post-dose values of some of the laboratory parameters were abnormal, both in Hydronidone and placebo groups. However, these changes were not considered clinically significant.
The multiple-dose component of the trial included 20 subjects assigned to receive 600 mg (8 subjects) three times per day (TID) (total daily dose of 1800 mg), or 800 mg of Hydronidone (12 subjects) TID (total daily dose of 2400 mg) for ten (10) consecutive days. Due to several cases of AEs of hypertriglyceridemia (4 out of 8 subjects) observed in the Hydronidone 600 mg TID dose group, the subjects (n=8) in the Hydronidone TID 800 mg dose group were divided into two subgroups, each comprising of 4 subjects. […] Due to inadvertent omission of the blood glucose test in the first sub-group (all four subjects) of the Hydronidone 800 mg TID dose group at the final study visit, per Principal Investigator decision, the enrollment was extended to include new four (4) subjects, increasing the total number of subjects in this dose group to 12. The safety evaluations were performed pre-dose, on the Day 5 of dosing, and 24 hr after the last dose of the 10-day dosing period.

[2] = In vitro Phase I metabolism in human liver microsomes; type: in vitro ADME
Experimental: The in vitro Phase I metabolism of hydronidone was evaluated by incubating human liver microsomes with hydronidone for 60 minutes.

liver fibrosis = experiment: HSA-induced and DMN-induced liver fibrosis in rats; type: in vivo
Experimental: Hydronidone anti-fibrotic effects were evaluated in several animal models of liver fibrosis, such as human serum albumin (HSA)-induced liver fibrosis in rats, dimethyl nitrosamine (DMN)-induced liver fibrosis in rats, and carbon tetrachloride (CCl4)-induced liver fibrosis in mice. […] In the CCl4-induced liver fibrosis in mice, Hydronidone effects were the most prominent at the doses of 3-10 mg/kg/day, although some effects were also shown at the dose of 1 mg/kg/day. In some embodiments, this dose range corresponds to human equivalent dose (HED) range of 15-50 mg. […] The HED of these rat doses are in the range of 100-2,400 mg which were all tested as safe in Phase I clinical trials of Hydronidone, with the 100 mg dose being […] the maximum daily dose of 360 mg (administered as 120 mg TID) administered to the subjects with liver fibrosis due to chronic Hepatitis B in the ongoing Phase II clinical study of efficacy and safety of Hydronidone in China.

human CYP 3A4 = human CYP 3A4 (Homo sapiens, UniProt P08684); experiment: CYP450 inhibition, fluorescence of metabolic substrates
Experimental: (§1) In vitro study investigated whether Hydronidone is inhibitor for human cytochrome P450 (CYP450). The effects of different Hydronidone concentrations were determined by the fluorescence intensity of metabolic substrates of CYP1A2, 2C9, 2C19, 2 D6 and 3A4, produced under the effect of the relevant enzyme. The respective IC50 value were calculated in the event of observed inhibition with hydronidone.

human CYP 2 D6 = human CYP 2 D6 (Homo sapiens, UniProt P10635); experiment: as above
Experimental: as §1

human CYP 2C19 = human CYP 2C19 (Homo sapiens, UniProt P33261); experiment: as above
Experimental: as §1

human CYP 2C9 = human CYP 2C9 (Homo sapiens, UniProt P11712); experiment: as above
Experimental: as §1

[3] = In vitro drug-drug interaction with Entecavir and Lamivudine in human liver microsomes
Experimental: Entecavir and Lamivudine, were used concomitantly with Hydronidone, or individually, in the in vitro drug interaction experiments, in respective concentrations of each of 1.5 mM.

[4] = Crossover study of food effect on safety, tolerability and PK of a single oral dose (Example 8); type: in vivo, human
Experimental: This was a randomized, open-label, 2-period, crossover PK study of effects of food on safety, tolerability, and PK of single oral doses of Hydronidone in healthy Chinese subjects. The PK parameters of the M3 and M4 metabolites of Hydronidone, in presence or absence of food were also determined.
Twelve healthy Chinese subjects were enrolled, dosed and in this inpatient study. They were randomly assigned in two groups/periods to receive a single oral 600 mg (3×200 mg) dose of Hydronidone either under fasted, or fed (high fat) conditions. Within each treatment period, PK blood samples were collected at: 0 (pre-dose), 10 min, 20 min, 30 min, 40 min, 1 hr, 1.5 hr, 2 hr, 3 hr, 4 hr, 5 hr, 6 hr, 8 hr, 10 hr, 12 hr, 16 hr, and 24 hr, and 48 hr post-dose. The wash-out period between the two periods in this trial was 48 hours.

[5] = 800 mg TID, fifth day of dosing
[6] = 800 mg TID, repeated test on study day 6
[7] = single oral 600 mg dose of Hydronidone, fed vs fasted

With `Cc1ccc(=O)n(-c2ccc(O)cc2)c1` [Hydronidone, N-(4-hydroxyphenyl)-5-Methyl-2-pyridone] the instances of hypertriglyceridemia ([1]; 600 mg TID, 10 days) was 3 instances, the “number of AEs reported” value ([1]; 600 mg TID, 10 days) was 7 AEs and the instances of hyperlipidemia ([1]; 800 mg TID, 10 days) was 3 instances. For the same compound, the “instances of liver dysfunction” value ([1]; 800 mg TID, 10 days) was 3 instances, the “number of AEs reported” value ([1]; 800 mg TID, 10 days) was 14 AEs and the “deaths and SAEs” value ([1]; multiple-dose component, 600 or 800 mg TID, 10 days) was “No deaths nor SAEs were reported”. For the same compound, the ALT [1, 5] was 79 U/L, the AST [1, 5] was 47 U/L and the ALT [1, 6] was 101 U/L. The AST [1, 6] was 61 U/L, the “subjects with mild transient dizziness” value ([1]; single dose 800 mg cohort) was “one” and the safety and tolerability ([1]; single dose 100, 200, 400, 600, 800 mg, healthy subjects) was “safe and well tolerated at all doses tested”. For the same compound, the “deaths and serious adverse events” value ([1]; single-dose component) was “No deaths nor serious adverse events (SAEs) were reported”, the formation of metabolites [2] was “no formation of metabolites was observed” and the “anti-fibrotic effect (level of fibrosis, hydroxyproline, ALT, AST)” value (liver fibrosis; HSA- and DMN-induced liver fibrosis in rats) was “potent anti-fibrotic effect”. The “anti-fibrotic effect compared with silymarin extract (positive control)” value (liver fibrosis; rats) was “comparable or more potent than silymarin extract”, the “dose range in which anti-fibrotic effects were shown” value (liver fibrosis; rats, depending on the model) was 10 to 250 mg/kg/day and the IC50 (human CYP 3A4) was over 100 µM. It also gave an IC50 (human CYP 2 D6) of over 100 µM, an IC50 (human CYP 2C19) of over 100 µM and an IC50 (human CYP 2C9) of over 100 µM. The “role of liver metabolism as metabolic pathway” value [3] was “the liver metabolism is not the main Hydronidone metabolic pathway”, the “effect of food (high-fat meal) on Cmax” value [4, 7] was “decreasing their Cmax values” and the “effect of food (high-fat meal) on rate of absorption” value [4, 7] was “delayed the rate of absorption”. The safety and tolerability ([4]; single oral 600 mg dose, fed or fasted) was “safe and well tolerated, without SAEs or AEs reported”.
